We go through 23 compounds from US8354436B2 (4SC Discovery GmbH, priority 2011, dated 2013).

Common to all, as to type: cell-based
Test [1] relates to PBMC from healthy human donors. The test is described as follows: T cell proliferation assay (PHA-stimulated human PBMC, BrdU ELISA). To be noted: 48 hours. The procedure, abridged: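 Proliferation was quantified by BrdU ELISA 48 hours after starting culture of 1×10⁵ human PBMC per well with test compound and 2 μg/ml phytohaemagglutinin. Cells came from healthy donors via Ficoll separation and were kept in RPMI1640 with 10% dialysed heat-inactivated FCS.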

A further test concerns IL-17FF. The test is described as follows: IL-17FF production by PHA-stimulated human PBMC (human IL-17F ELI-Pair). The essentials: (§1)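 Healthy-donor PBMC (1×10^5 cells/well) were activated with 2 μg/ml PHA and cultured with test compounds for 48 hours; cytokines were then quantified in supernatants by the respective immunoassay. Screening used 10, 1, 0.1 and 0.01 μM; IC50 came from semilogarithmic compound titration.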

A further test relates to IFN-γ. Put plainly: IFN-γ production by PHA-stimulated human PBMC (OptEIA human IFN-g ELISA). The procedure, abridged: as §1
(In an ELISA, binding on a coated surface is turned into a signal by an enzyme label.)

Where [2] appears, read: PHA-stimulated human PBMC, column D, read-out: IC50 (Tcell proliferation).
Setting [3] is: PHA-stimulated human PBMC, 48 hours, column B, read-out: IC50 (IL-17FF).
Setting [4] is: PHA-stimulated human PBMC, 48 hours, column C, read-out: IC50 (IFNγ).
Where [5] appears, read: human PBMC, 2 μg/ml PHA, read-out: D: IC50 (Tcell proliferation).
Setting [6] is: human PBMC, 2 μg/ml PHA, 48 hours, read-out: B: IC50 (IL-17FF).
Setting [7] is: human PBMC, 2 μg/ml PHA, 48 hours, read-out: C: IC50 (IFNγ).

SMILES strings stand for the structures. Read-outs that look alike come from different tables or passages of the source.

`Fc1cccc(Cl)c1-c1noc(-c2cnn(-c3cccc(Cl)c3)c2C(F)(F)F)c1Br` [Example I-140, 4-bromo-3-(2-chloro-6-fluorophenyl)-5-(1-(3-chlorophenyl)-5-(trifluoromethyl)-1H-pyrazol-4-yl)isoxazole]: the IC50 in test [1] (setting [2]) is 10 to 100 nM; with IL-17FF (setting [3]) it was below 10 nM; in the test with IFN-γ (setting [4]), below 10 nM.
In the case of `CCOC(=O)c1c(-c2c(Cl)cncc2Cl)noc1-c1cnn(-c2ccccc2Cl)c1C(F)(F)F` [IB-16, ethyl 5-(1-(2-chlorophenyl)-5-(trifluoromethyl)-1H-pyrazol-4-yl)-3-(3,5-dichloropyridin-4-yl)isoxazole-4-carboxylate], the IC50 in test [1] (setting [2]) is 1000 to 10000 nM; with IL-17FF (setting [3]), 100 to 1000 nM; with IFN-γ (setting [4]), 1000 to 10000 nM.
In the case of `Fc1cccc(Cl)c1-c1noc(-c2cnn(-c3ccccc3)c2C(F)(F)F)c1Br` [Example I-145, 4-bromo-3-(2-chloro-6-fluorophenyl)-5-(1-phenyl-5-(trifluoromethyl)-1H-pyrazol-4-yl)isoxazole], the IC50 was 10 to 100 nM in test [1] (setting [2]), 10 to 100 nM with IL-17FF (setting [3]) and below 10 nM with IFN-γ (setting [4]).
`COC(=O)c1c(-c2c(F)cccc2Cl)noc1-c1cnn(-c2cc(C)nc(C)n2)c1C(F)(F)F` [Example I-119, methyl 3-(2-chloro-6-fluorophenyl)-5-(1-(2,6-dimethylpyrimidin-4-yl)-5-(trifluoromethyl)-1H-pyrazol-4-yl)isoxazole-4-carboxylate]: the IC50 (in test [1] (setting [2]); with IL-17FF (setting [3]); in the test on IFN-γ (setting [4])) was 100 to 1000 nM throughout.
For the compound `Fc1cccc(Cl)c1-c1noc(-c2cnn(-c3ccncc3)c2C(F)(F)F)c1-c1cnco1` [Example B-33, 3-(2-chloro-6-fluorophenyl)-4-(oxazol-5-yl)-5-(1-(pyridin-4-yl)-5-(trifluoromethyl)-1H-pyrazol-4-yl)isoxazole], the IC50 in test [1] (setting [5]) fell in the range of 1000 to 10000 nM; in the test on IL-17FF (setting [6]) it was 1000 to 10000 nM; with IFN-γ (setting [7]), 100 to 1000 nM.
In the case of `O=C(c1c(-c2c(F)cccc2Cl)noc1-c1cnn(-c2cccnc2)c1C(F)(F)F)N1CCCO1` [IB-54, (3-(2-chloro-6-fluorophenyl)-5-(1-(pyridin-3-yl)-5-(trifluoromethyl)-1H-pyrazol-4-yl)isoxazol-4-yl)(isoxazolidin-2-yl)methanone], the IC50 (in test [1] (setting [2]); in the test on IL-17FF (setting [3]); in the test on IFN-γ (setting [4])) was 1000 to 10000 nM each time.
On to `CCOC(=O)c1c(-c2c(F)cccc2Cl)noc1-c1cnn(-c2ccccc2Cl)c1C(F)(F)F` [IB-33, ethyl 3-(2-chloro-6-fluorophenyl)-5-(1-(2-chlorophenyl)-5-(trifluoromethyl)-1H-pyrazol-4-yl)isoxazole-4-carboxylate], for which the IC50 lay in the range of 100 to 1000 nM in test [1] (setting [2]); 100 to 1000 nM in the test on IL-17FF (Homo sapiens, PBMC, 48 h, read-out: IC50 (IL-17FF)); 100 to 1000 nM in the test with IFN-γ (Homo sapiens, PBMC, 48 h, read-out: IC50 (IFNγ)).
For `CON(C)C(=O)c1c(-c2ccccc2Cl)noc1-c1cnn(-c2cccc(Cl)c2)c1C(F)(F)F` [IB-64, 3-(2-chlorophenyl)-5-(1-(3-chlorophenyl)-5-(trifluoromethyl)-1H-pyrazol-4-yl)-N-methoxy-N-methylisoxazole-4-carboxamide], the IC50 was 100 to 1000 nM in test [1] (setting [2]), 10 to 100 nM with IL-17FF (setting [3]) and 100 to 1000 nM in the test on IFN-γ (setting [4]).
Take `CCOC(=O)c1c(-c2ccncc2F)noc1-c1cnn(-c2ccncc2)c1C(F)(F)F` [IB-3, ethyl 3-(3-fluoropyridin-4-yl)-5-(1-(pyridin-4-yl)-5-(trifluoromethyl)-1H-pyrazol-4-yl)isoxazole-4-carboxylate]: the figures for the IC50 (in test [1] (setting [2]); with IL-17FF (setting [3]); with IFN-γ (setting [4])) were 100 to 1000 nM, 100 to 1000 nM and 10 to 100 nM, respectively.
With `O=C(c1c(-c2c(F)cccc2Cl)noc1-c1cnn(-c2ccncc2)c1C(F)(F)F)N1CCCO1` [IB-57, (3-(2-chloro-6-fluorophenyl)-5-(1-(pyridin-4-yl)-5-(trifluoromethyl)-1H-pyrazol-4-yl)isoxazol-4-yl)(isoxazolidin-2-yl)methanone], the IC50 (in test [1] (setting [2]); in the test on IL-17FF (setting [3]); in the test with IFN-γ (setting [4])) was 1000 to 10000 nM each time.
Consider `CCOC(=O)c1c(-c2c(Cl)cccc2Cl)noc1-c1cnn(-c2cccc(Cl)c2)c1C(F)(F)F` [IB-45, ethyl 5-(1-(3-chlorophenyl)-5-(trifluoromethyl)-1H-pyrazol-4-yl)-3-(2,6-dichlorophenyl)-isoxazole-4-carboxylate], for which the IC50 (in test [1] (setting [2]); in the test on IL-17FF (setting [3]); in the test with IFN-γ (setting [4])) was below 10 nM each time.
`O=C(NCc1ccccc1C(F)(F)F)c1c(-c2c(F)cccc2Cl)noc1-c1cnn(-c2ccccc2F)c1C(F)(F)F` [Example I-23, 3-(2-chloro-6-fluorophenyl)-5-(1-(2-fluorophenyl)-5-(trifluoromethyl)-1H-pyrazol-4-yl)-N-(2-(trifluoromethyl)ben-zyl)isoxazole-4-carboxamide]: the results for the IC50 (in test [1] (setting [2]); in the test with IL-17FF (setting [3]); in the test on IFN-γ (setting [4])) were 1000 to 10000 nM, 1000 to 10000 nM and 100 to 1000 nM, respectively.
Regarding `Cc1nnc(-c2c(-c3c(F)cccc3Cl)noc2-c2cnn(-c3ccccn3)c2C(F)(F)F)o1` [Example B-26, 2-(3-(2-chloro-6-fluorophenyl)-5-(1-(pyridin-2-yl)-5-(trifluoromethyl)-1H-pyrazol-4-yl)isoxazol-4-yl)-5-methyl-1,3,4-oxadiazole], the figures for the IC50 (in test [1] (setting [5]); with IL-17FF (setting [6]); in the test with IFN-γ (setting [7])) were 100 to 1000 nM, 10 to 100 nM and 10 to 100 nM, respectively.
For the compound `COC(=O)c1c(-c2c(F)cccc2Cl)noc1-c1cnn(-c2cc(Cl)cc(Cl)c2)c1C(F)(F)F` [Example I-68, methyl 3-(2-chloro-6-fluorophenyl)-5-(1-(3,5-dichlorophenyl)-5-(trifluoromethyl)-1H-pyrazol-4-yl)isoxazole-4-carboxylate], the IC50 (in test [1] (setting [2]); in the test on IL-17FF (setting [3]); in the test on IFN-γ (setting [4])) was 10 to 100 nM in each case.
Consider `CNC(=O)c1c(-c2c(F)cccc2Cl)noc1-c1cnn(-c2ccccn2)c1C(F)(F)F` [IB-93, 3-(2-chloro-6-fluorophenyl)-N-methyl-5-(1-(pyridin-2-yl)-5-(trifluoromethyl)-1H-pyrazol-4-yl)isoxazole-4-carboxamide], for which the figures for the IC50 (in test [1] (setting [2]); in the test with IL-17FF (setting [3]); with IFN-γ (setting [4])) were 1000 to 10000 nM, 100 to 1000 nM and 100 to 1000 nM, respectively.
Turning to `CCOC(=O)c1c(-c2onc(-c3c(F)cccc3Cl)c2C(=O)OC)cnn1-c1cccc(Cl)c1` [Example I-10, methyl 3-(2-chloro-6-fluorophenyl)-5-(1-(3-chlorophenyl)-5-(ethoxycarbonyl)-1H-pyrazol-4-yl)isoxazole-4-carboxylate], the IC50 fell in the range of 10 to 100 nM in test [1] (setting [2]), 100 to 1000 nM in the test with IL-17FF (setting [3]) and 10 to 100 nM in the test on IFN-γ (setting [4]).
Regarding `COC(=O)c1c(-c2cccc(F)c2)noc1-c1cnn(-c2cccc(F)c2)c1C(F)(F)F` [Example I-106, methyl 3-(3-fluorophenyl)-5-(1-(3-fluorophenyl)-5-(trifluoromethyl)-1H-pyrazol-4-yl)isoxazole-4-carboxylate], the IC50 (in test [1] (setting [2]); with IL-17FF (setting [3]); in the test on IFN-γ (setting [4])) was 1000 to 10000 nM in each case.
`CSC(=O)c1c(-c2c(F)cccc2Cl)noc1-c1cnn(-c2cccnc2)c1C(F)(F)F` [IB-68, S-methyl 3-(2-chloro-6-fluorophenyl)-5-(1-(pyridin-3-yl)-5-(trifluoromethyl)-1H-pyrazol-4-yl)isoxazole-4-carbothioate]: the IC50 in test [1] (setting [2]) is 10 to 100 nM; in the test with IL-17FF (setting [3]) it was below 10 nM; with IFN-γ (setting [4]), below 10 nM.
For the compound `CCOC(=O)c1c(-c2c(Cl)cncc2Cl)noc1-c1cnn(-c2cccnc2)c1C(F)(F)F` [IB-12, ethyl 3-(3,5-dichloropyridin-4-yl)-5-(1-(pyridin-3-yl)-5-(trifluoromethyl)-1H-pyrazol-4-yl)isoxazole-4-carboxylate], the results for the IC50 (in test [1] (setting [2]); in the test with IL-17FF (setting [3]); in the test with IFN-γ (setting [4])) were 100 to 1000 nM, 10 to 100 nM and 100 to 1000 nM, respectively.
For the compound `CO/C(=N\c1c(-c2c(F)cccc2Cl)noc1-c1cnn(-c2cccc(F)c2)c1C(F)(F)F)C(F)(F)F` [Example I-136, (Z)-methyl N-(3-(2-chloro-6-fluorophenyl)-5-(1-(3-fluorophenyl)-5-(trifluoromethyl)-1H-pyrazol-4-yl)isoxazol-4-yl)-2,2,2-trifluoroacetimidate], the IC50 fell in the range of 100 to 1000 nM in test [1] (setting [2]), 100 to 1000 nM in the test with IL-17FF (setting [3]) and 10 to 100 nM with IFN-γ (setting [4]).
For `COC(=O)c1c(-c2c(F)cccc2Cl)noc1-c1cnn(-c2ccccn2)c1C(F)(F)F` [Example I-84, methyl 3-(2-chloro-6-fluorophenyl)-5-(1-(pyridin-2-yl)-5-(trifluoromethyl)-1H-pyrazol-4-yl)isoxazole-4-carboxylate], the IC50 (in test [1] (setting [2]); in the test with IL-17FF (setting [3]); with IFN-γ (setting [4])) was below 10 nM each time.
With `COC(=O)c1c(-c2c(Cl)cccc2Cl)noc1-c1cnn(-c2cccc(Cl)c2)c1C(F)(F)F` [IB-75, methyl 5-(1-(3-chlorophenyl)-5-(trifluoromethyl)-1H-pyrazol-4-yl)-3-(2,6-dichlorophenyl)isoxazole-4-carboxylate], the IC50 (in test [1] (setting [2]); in the test with IL-17FF (setting [3]); with IFN-γ (setting [4])) was below 10 nM in each case.
As to `CNC(=S)c1c(-c2c(F)cccc2Cl)noc1-c1cnn(-c2ccc(F)cc2)c1C(F)(F)F` [Example I-76, 3-(2-chloro-6-fluorophenyl)-5-(1-(4-fluorophenyl)-5-(trifluoromethyl)-1H-pyrazol-4-yl)-N-methylisoxazole-4-carbothioamide], the IC50 in test [1] (setting [2]) lay within 1000 to 10000 nM; in the test with IL-17FF (setting [3]), 1000 to 10000 nM; in the test on IFN-γ (setting [4]), 100 to 1000 nM.
